Measured values reported in ChEMBL document CHEMBL1201862, “PubChem BioAssay data set” (2004).
Activity calls are given as the source filed them.

Tests used:
[1] = Luminescence Cell-Based Dose Confirmation HTS to Identify Inhibitors of Polyadenylation.; type: functional
Large T antigen = Large T antigen (Simian virus 40, UniProt P03070); type: functional, Betapolyomavirus macacae;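 note: Confirmatory-stage PubChem screen for compounds that inhibit SV40 T antigen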
Coagulation factor XII = target: T1, Coagulation factor XII (Homo sapiens, UniProt P00748); type: functional;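 note: activated factor XIIa alpha cleaving a fluorogenic AMC peptide substrate; inhibitor potency from loss of enzyme activity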
T1 sequence (P00748 whole entry): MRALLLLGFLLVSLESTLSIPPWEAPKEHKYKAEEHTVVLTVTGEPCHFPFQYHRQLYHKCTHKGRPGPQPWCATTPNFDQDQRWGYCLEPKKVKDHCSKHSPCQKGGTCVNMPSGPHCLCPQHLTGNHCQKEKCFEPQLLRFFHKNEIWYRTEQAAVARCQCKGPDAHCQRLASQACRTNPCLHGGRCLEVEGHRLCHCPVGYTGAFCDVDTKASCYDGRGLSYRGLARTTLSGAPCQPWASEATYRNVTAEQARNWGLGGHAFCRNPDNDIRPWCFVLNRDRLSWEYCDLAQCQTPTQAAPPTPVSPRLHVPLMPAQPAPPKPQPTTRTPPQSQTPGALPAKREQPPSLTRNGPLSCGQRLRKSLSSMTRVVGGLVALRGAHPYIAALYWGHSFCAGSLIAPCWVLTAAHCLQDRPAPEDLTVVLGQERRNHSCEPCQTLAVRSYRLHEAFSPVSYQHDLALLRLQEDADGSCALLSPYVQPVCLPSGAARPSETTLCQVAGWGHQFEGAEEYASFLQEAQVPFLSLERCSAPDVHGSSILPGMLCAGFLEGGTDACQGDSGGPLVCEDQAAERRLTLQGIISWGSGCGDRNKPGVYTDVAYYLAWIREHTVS

Bcl-2-related protein A1 [2] = target: T2, Bcl-2-related protein A1 (Mus musculus, UniProt Q07440); assay: Bfl-1 binding inhibitors, SAR follow-up, biochemical, fluorescence polarization (AID 1070)
T2 sequence (Q07440 whole entry): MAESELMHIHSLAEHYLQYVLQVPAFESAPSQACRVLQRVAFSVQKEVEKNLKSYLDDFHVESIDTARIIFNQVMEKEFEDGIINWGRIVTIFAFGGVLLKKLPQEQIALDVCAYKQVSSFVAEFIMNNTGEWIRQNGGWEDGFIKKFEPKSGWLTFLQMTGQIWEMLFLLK

Protein skinhead-1 = target: T3, Protein skinhead-1 (Caenorhabditis elegans, UniProt P34707); type: functional
T3 sequence (P34707 whole entry): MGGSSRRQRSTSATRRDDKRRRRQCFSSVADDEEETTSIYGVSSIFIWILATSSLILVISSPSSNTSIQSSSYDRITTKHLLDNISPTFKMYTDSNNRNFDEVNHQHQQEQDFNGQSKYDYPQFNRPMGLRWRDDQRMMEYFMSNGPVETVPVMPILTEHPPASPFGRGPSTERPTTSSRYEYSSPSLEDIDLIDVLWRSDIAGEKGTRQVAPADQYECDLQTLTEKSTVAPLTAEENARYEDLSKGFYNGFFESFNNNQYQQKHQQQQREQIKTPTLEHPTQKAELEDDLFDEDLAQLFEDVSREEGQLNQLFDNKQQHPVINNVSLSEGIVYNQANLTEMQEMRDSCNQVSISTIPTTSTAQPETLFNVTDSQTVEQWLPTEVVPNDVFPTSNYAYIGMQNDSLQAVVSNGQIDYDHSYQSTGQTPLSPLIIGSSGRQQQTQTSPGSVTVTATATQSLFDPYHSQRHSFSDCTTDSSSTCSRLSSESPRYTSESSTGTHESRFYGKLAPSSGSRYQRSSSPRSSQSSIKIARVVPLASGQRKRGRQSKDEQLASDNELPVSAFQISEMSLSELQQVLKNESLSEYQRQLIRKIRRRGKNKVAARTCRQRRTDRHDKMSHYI

Bcl-2-related protein A1 [3] = target: T2, Bcl-2-related protein A1; assay: Bfl-1 inhibitors blocking BH3 peptide binding, confirmation, biochemical, TR-FRET, mouse Bfl-1 (AID 621);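 note: TR-FRET binding of GST-Bfl-1 to FITC-labelled Bid peptide via terbium antibody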
[4] = inhibitors of SNCA 5'UTR-driven translation, confirmation, luminescence, H4 neuroglioblastoma cells, dose confirmation (AID 2454); type: functional, cell-based;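 note: H4 neuroglioblastoma cells carrying an alpha-synuclein 5'UTR luciferase reporter; potency for inhibition of the luciferase signal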
cells [5] = type: functional, cell-based
[6] = Luminescence Cell-Based Dose Response HTS to Identify Inhibitors of 5'UTR Stem-Loop Driven Prion Protein mRNA Translation in H4 Neuroglioblastoma Cells. [Related pubchem assays: 1827 (Project Summary), 1813 (Primary HTS)]; type: functional
[7] = target: T4, Nuclear receptor subfamily 0 group B member 1 (Homo sapiens, UniProt P51843); type: functional, cell-based;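 note: HEK293T cells transfected with SF-1 and DAX-1 plus StAR promoter luciferase reporter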
T4 sequence (P51843 whole entry): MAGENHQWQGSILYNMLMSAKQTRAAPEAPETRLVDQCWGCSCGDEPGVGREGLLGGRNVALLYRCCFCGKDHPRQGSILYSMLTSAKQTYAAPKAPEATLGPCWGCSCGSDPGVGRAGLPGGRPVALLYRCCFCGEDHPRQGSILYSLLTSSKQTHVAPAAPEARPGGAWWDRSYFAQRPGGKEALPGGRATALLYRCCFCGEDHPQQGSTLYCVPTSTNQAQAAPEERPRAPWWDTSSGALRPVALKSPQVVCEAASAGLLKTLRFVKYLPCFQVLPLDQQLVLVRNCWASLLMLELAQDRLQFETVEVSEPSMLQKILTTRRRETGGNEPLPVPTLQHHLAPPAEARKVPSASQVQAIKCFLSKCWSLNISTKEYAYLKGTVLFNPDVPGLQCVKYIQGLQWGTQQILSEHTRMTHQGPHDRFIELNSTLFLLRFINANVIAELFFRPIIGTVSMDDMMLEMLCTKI

[8] = inhibitors of firefly luciferase expression or activity, dose response, H4 neuroglioma cells, luminescence (AID 1990); type: functional, cell-based
Paired box protein Pax-8 = Paired box protein Pax-8 (Homo sapiens, UniProt Q06710); assay: inhibitors of PAX8-driven TPO luciferase reporter, dose response, RMG-I cells, cherry-pick (AID 687027); type: functional, cell-based;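 note: luciferase reporter driven by Pax8 target thyroperoxidase promoter measured by SteadyGlo luminescence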
Chain of Paired box protein Pax-8 (Q06710 whole entry): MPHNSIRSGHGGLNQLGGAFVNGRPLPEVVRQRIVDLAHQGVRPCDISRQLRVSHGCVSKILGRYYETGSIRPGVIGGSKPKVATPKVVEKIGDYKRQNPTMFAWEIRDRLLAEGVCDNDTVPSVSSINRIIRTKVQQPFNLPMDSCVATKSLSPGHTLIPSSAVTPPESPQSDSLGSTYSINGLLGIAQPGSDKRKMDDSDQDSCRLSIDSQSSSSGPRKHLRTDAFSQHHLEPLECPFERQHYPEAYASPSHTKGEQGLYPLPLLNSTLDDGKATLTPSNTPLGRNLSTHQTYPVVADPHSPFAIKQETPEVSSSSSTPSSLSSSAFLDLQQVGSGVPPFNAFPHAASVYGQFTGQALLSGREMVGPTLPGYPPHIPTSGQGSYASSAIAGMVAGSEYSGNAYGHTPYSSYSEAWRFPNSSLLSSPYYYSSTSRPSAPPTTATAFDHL

cells [9] = type: functional, cell-based; remark: listed apart in the source
[10] = luciferase reporter signal reduction – luminescence, H4-C neuroglioblastoma cells, dose response (AID 2458); type: functional, cell-based;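 note: H4 neuroglioblastoma cells stably carrying a luciferase reporter gene fusion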
[11] = inhibitors of SNCA 5'UTR-driven reporter translation, confirmation, H4 neuroglioma cells, luminescence (AID 1988); type: functional, cell-based
HEK293 = assay: Fluorescence-based counterscreen for potentiators or agonists of NPY-Y2: cell-based high-throughput dose response assay to identify inhibitors of cyclic nucleotide gated ion channel (CNGC) activity. In this assay, the parental HEK293 cell line transfected with a cyclic-nucleotide gated ion channel (CNGC)-based cAMP sensor is used to measure inhibition of isoproterenol-induced CNGC activity by test compound.; type: functional; settings: Homo sapiens;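 note: stimulus is 1 µM isoproterenol at EC100 plus PDE inhibitor Ro 20-1724 at 25 µM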
[12] = target: Neuropeptide Y receptor type 1 (Homo sapiens, UniProt P25929); assay: Fluorescence-based counterscreen for agonists of NPY-Y2: cell-based high-throughput dose response assay for agonists of NPY-Y1.; type: functional
Chain of Neuropeptide Y receptor type 1 (P25929 whole entry): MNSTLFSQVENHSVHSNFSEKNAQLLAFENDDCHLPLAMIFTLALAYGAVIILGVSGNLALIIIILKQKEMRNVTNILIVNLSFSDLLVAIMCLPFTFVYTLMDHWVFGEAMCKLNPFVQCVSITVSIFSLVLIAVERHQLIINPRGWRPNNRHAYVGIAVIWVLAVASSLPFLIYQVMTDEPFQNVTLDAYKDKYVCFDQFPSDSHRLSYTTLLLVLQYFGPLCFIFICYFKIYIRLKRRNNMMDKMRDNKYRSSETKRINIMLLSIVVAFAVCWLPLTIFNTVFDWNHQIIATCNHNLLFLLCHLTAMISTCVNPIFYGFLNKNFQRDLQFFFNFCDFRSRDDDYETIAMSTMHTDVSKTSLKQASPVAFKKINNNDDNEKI

[13] = target: Neuropeptide Y receptor type 2 (Homo sapiens, UniProt P49146); assay: Fluorescence-based cell-based high-throughput dose response assay for agonists of NPY-Y2. [Related pubchem assays: 1703 (Screening assay (CNGC inhibitors).), 1359 (Screening assay (NPY-Y2 potentiators or agonists).), 1304 (Screening assay (NPY-Y1 potentiators or agonists).), 1710 (Screening assay (NPY-Y2 agonists).), 1791 (Summary AID.)]; type: functional
Chain of Neuropeptide Y receptor type 2 (P49146 whole entry): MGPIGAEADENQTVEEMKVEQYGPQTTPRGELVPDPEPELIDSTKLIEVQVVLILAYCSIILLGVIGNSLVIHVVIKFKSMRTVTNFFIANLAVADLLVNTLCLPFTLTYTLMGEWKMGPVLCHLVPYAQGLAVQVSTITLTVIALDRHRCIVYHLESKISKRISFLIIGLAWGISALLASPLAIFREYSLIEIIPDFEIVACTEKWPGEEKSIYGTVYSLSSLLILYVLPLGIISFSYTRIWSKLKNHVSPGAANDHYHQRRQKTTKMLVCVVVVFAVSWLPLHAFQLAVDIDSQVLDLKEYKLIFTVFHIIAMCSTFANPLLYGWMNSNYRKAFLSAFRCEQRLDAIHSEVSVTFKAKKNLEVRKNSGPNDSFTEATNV

[14] = target: Lytic switch protein BZLF1 (Epstein-Barr virus (strain B95-8) (HHV-4) (Human herpesvirus 4), UniProt P03206); assay: EBV ZTA inhibitors, dose response, counter-screen for EBNA-1 inhibitor project, biochemical, fluorescence polarization, Epstein-Barr virus, 1536-well (AID 2377); design: species or system human gammaherpesvirus 4;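 note: fluorescence polarization of Cy5-labelled ZRE DNA probe bound by purified Zta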
Chain of Lytic switch protein BZLF1 (P03206 whole entry): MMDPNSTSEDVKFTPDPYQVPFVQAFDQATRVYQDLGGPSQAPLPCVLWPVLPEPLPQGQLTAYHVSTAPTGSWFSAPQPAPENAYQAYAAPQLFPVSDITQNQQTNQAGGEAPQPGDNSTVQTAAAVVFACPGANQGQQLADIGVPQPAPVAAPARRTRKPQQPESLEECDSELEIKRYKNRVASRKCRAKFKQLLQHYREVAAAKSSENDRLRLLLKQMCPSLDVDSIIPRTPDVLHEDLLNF

[15] = target: Epstein-Barr nuclear antigen 1 (Epstein-Barr virus (strain B95-8) (HHV-4) (Human herpesvirus 4), UniProt P03211); assay: EBNA-1 inhibitors, dose response, biochemical, fluorescence polarization, 1536-well (AID 2381); design: species or system human gammaherpesvirus 4;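 note: fluorescence polarization of a Cy5 DNA probe bound by EBNA-1 protein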
Chain of Epstein-Barr nuclear antigen 1 (P03211 whole entry): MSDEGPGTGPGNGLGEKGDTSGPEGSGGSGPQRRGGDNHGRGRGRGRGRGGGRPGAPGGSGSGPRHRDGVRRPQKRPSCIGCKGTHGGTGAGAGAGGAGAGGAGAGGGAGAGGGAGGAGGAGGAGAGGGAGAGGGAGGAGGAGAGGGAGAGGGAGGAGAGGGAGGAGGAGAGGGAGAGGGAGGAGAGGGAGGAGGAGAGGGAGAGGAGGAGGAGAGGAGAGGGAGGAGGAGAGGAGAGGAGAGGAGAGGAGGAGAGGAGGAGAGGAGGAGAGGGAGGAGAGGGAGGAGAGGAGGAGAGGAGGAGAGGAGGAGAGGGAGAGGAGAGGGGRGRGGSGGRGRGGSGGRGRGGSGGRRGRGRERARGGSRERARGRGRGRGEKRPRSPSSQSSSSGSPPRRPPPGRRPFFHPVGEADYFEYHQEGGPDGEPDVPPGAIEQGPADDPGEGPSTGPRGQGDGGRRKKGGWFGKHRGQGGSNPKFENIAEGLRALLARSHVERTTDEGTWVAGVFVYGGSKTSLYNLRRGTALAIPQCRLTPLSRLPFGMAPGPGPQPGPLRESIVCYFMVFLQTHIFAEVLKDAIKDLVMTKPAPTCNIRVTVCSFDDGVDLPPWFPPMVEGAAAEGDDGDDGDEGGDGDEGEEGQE

[16] = MC4R antagonists, dose response, counter-screen for LGR2 antagonist project, cell-based, plate reader, cherry pick (AID 743444); type: functional;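 note: transfected HEK 293 cells stimulated with alpha-MSH peptide; potency of inhibitors of the alpha-MSH evoked signal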
[17] = LGR2 antagonists, dose response, cell-based, HEK293, CRE-luciferase reporter, cherry pick, set 2 (AID 743343); type: functional;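 note: transfected cells were stimulated with diluted bursicon conditioned medium after compound addition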
[18] = Luminescence-based counterscreen assay for KLF5 inhibitors: dose response cell-based high throughput screening assay to identify cytotoxic compounds using the IEC-6 intestinal epithelial cell line. [Related pubchem assays: 1700 (Primary screen.), 1834 (Confirmation screen.), 1858 (Summary AID.), 1905 (Counterscreen.)]; type: functional
[19] = Luminescence Cell-Based Dose Confirmation HTS to Identify Inhibitors of Platelet Dense Granule Release. [Related pubchem assays: 1663 (Primary HTS), 1678 (Summary of Project)]; type: functional
[20] = HEK293 cell cytotoxicity, dose response, cytotoxicity control, plate reader, cherry-picked samples (AID 743446); type: functional, cell-based
[21] = target: Luciferin 4-monooxygenase (Photinus pyralis, UniProt P08659); assay: firefly luciferase enzyme inhibitors, dose response, biochemical, luminescence (AID 1891)
Chain of Luciferin 4-monooxygenase (P08659 whole entry): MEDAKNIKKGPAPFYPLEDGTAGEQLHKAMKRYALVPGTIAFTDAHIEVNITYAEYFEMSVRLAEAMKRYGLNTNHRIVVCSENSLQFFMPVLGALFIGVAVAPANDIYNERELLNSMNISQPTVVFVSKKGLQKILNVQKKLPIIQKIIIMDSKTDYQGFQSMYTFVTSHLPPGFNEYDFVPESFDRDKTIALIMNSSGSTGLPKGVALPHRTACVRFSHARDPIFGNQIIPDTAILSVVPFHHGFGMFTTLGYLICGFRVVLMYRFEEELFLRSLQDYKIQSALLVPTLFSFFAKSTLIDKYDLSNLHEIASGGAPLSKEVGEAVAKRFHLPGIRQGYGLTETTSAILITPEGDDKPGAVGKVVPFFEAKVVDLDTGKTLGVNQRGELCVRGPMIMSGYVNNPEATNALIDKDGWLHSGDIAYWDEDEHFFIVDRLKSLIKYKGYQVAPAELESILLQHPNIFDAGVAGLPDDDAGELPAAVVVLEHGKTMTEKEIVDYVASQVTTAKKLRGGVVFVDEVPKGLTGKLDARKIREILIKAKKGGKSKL

[22] = target: Protein-tyrosine kinase 2-beta (Homo sapiens, UniProt Q14289);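 note: potency of inhibitors of PYK2 kinase phosphorylation of poly-GT substrate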
Chain of Protein-tyrosine kinase 2-beta (Q14289 whole entry): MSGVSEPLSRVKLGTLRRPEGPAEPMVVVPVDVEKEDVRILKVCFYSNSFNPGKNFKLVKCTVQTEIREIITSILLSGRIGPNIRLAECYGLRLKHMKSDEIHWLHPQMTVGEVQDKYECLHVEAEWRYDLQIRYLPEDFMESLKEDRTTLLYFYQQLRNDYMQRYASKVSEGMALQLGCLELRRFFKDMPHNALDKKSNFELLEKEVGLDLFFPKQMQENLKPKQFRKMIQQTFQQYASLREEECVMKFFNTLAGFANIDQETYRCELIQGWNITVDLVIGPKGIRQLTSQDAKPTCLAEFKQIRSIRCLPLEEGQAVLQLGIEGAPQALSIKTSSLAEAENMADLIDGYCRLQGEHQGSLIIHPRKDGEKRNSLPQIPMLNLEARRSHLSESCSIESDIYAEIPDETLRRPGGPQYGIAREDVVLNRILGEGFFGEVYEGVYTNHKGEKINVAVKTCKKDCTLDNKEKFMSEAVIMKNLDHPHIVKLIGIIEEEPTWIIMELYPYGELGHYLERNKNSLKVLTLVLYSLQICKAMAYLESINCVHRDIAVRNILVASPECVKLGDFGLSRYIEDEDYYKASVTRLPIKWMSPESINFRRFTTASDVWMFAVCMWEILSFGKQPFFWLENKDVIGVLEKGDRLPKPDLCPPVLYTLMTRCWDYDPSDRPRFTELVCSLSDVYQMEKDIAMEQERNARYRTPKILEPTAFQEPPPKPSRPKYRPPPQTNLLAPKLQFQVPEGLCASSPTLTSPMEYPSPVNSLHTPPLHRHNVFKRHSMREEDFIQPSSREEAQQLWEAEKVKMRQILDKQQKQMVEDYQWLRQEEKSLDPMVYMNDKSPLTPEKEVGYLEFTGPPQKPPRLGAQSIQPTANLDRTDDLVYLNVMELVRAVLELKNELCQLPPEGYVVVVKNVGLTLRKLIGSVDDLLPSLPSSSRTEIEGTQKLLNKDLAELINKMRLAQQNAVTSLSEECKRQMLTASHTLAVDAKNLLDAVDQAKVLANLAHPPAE

Chain of Large T antigen (P03070 whole entry): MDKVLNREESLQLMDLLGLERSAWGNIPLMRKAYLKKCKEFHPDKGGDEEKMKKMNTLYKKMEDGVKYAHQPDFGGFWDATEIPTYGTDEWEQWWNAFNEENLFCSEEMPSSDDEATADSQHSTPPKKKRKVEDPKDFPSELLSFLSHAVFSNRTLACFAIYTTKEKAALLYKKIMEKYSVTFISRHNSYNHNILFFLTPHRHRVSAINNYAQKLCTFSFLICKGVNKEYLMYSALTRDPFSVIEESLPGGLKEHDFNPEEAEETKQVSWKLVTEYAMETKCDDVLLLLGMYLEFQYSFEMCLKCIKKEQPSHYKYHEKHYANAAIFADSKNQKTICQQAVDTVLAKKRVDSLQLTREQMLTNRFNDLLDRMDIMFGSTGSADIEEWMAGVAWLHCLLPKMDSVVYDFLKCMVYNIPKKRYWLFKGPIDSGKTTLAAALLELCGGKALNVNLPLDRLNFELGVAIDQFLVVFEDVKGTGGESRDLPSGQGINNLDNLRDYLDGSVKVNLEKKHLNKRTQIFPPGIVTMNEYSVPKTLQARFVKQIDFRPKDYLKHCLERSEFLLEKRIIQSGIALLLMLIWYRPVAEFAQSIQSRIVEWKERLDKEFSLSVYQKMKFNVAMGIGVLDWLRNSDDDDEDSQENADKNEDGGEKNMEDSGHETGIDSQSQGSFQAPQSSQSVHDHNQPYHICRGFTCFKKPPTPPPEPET

For `O=C(O)CN1C(=O)/C(=C/c2ccc(N3CCCCC3)o2)SC1=S`, the EC50 [1] was 10.6 µM (active), the IC50 (Large T antigen) was 31.7 µM (active) and the IC50 (Coagulation factor XII) was > 50 µM (inactive).
For `Clc1ccc(-n2nnc(-c3cccnc3)n2)cc1Cl`, the IC50 (Bcl-2-related protein A1 [2]) was > 100 µM (not active), the IC50 (Protein skinhead-1) was 57.3 µM (inactive) and the IC50 (Bcl-2-related protein A1 [3]) was > 100 µM (not active).
In the case of `Cc1cc(C)c2nc(SCC(=O)N3CC(=O)Nc4ccccc43)c(C#N)cc2c1`, the EC50 [4] is reported as > 12 µM (inconclusive), the EC50 (cells [5]) is reported as > 12 µM (not active) and the EC50 [6] is reported as 0.217 µM (active). The IC50 [7] was > 67.5 µM (inactive), the EC50 [8] was 0.13 µM (active) and the AC50 (Paired box protein Pax-8) was 1.25 µM (active). For the same compound, the IC50 (cells [9]) was > 67.5 µM (inactive), the EC50 [10] was 0.665 µM (active) and the EC50 [11] was < 0.1 µM (active).
For `CC(C)CC(NC(=O)c1ccc(Cl)cc1)C(=O)OCc1cc([N+](=O)[O-])cc2c1OCOC2` (stereo not given), the EC50 (HEK293) was > 35.4 µM (not active), the EC50 [12] was > 35.4 µM (not active) and the EC50 [13] was > 35.4 µM (not active).
In the case of `COc1ccc(C2CC(C(F)(F)F)n3nc(C(=O)Nc4ccc5c(c4)OCO5)cc3N2)cc1` (stereo not given), the IC50 [14] is reported as > 111 µM (not active), the IC50 [15] is reported as 9.48 µM (active) and the IC50 (Coagulation factor XII) is reported as > 50 µM (inactive).
With `O=C(Nc1cccc(O)c1)c1cc(-c2ccc3c(c2)OCO3)on1` the AC50 [16] was 5.8 µM (active), the EC50 [6] was > 120 µM (not active) and the AC50 [17] was 4.08 µM (active). For the same compound, the IC50 [18] was > 39.8 µM (not active), the EC50 [19] was 1.71 µM (active) and the AC50 [20] was 6.57 µM (active). For the same compound, the EC50 [21] was 0.349 µM (active) and the EC50 [11] was 5.97 µM (active).
With `c1ccc(-c2nccc(-c3ccc(-n4cnc5ccccc54)cc3)n2)cc1` the IC50 [22] was 2.64 µM (active).
